In publication PMC9631745 (ACS Omega, 2022):

Biological target: human transferrin (Tf; hTf) (Homo sapiens, UniProt P02787)
Test: isothermal titration calorimetry
Type: binding

Sequence of human transferrin (Tf; hTf) (P02787 20-698): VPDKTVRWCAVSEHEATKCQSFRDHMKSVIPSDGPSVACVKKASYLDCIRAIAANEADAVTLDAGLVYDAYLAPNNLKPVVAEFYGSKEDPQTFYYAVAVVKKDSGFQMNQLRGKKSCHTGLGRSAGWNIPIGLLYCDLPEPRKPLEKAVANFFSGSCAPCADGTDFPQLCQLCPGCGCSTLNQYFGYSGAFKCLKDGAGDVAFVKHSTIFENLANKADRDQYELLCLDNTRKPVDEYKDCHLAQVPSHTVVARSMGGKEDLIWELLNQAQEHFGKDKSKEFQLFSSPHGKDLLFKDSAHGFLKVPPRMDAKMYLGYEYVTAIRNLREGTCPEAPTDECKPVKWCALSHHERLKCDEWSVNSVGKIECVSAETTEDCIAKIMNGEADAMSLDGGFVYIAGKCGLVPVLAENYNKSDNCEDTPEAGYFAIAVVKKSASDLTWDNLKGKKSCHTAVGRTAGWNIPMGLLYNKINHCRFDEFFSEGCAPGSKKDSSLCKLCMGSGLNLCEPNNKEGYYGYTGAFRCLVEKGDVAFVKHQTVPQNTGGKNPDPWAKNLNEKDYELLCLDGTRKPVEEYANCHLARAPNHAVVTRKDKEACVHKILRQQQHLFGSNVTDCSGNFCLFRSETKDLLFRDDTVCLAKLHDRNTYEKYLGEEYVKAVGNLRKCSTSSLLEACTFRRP

Kd: 1450 nM
SMILES: C/C=C1\[C@H]2C=C(C)C[C@]1(N)c1ccc(=O)[nH]c1C2 [Huperzine A]
